Results on nine compounds are retold here after ChEMBL document CHEMBL4513139, “CO-ADD screening of University of Strathclyde (UK) compounds”.

One assay concerns Acinetobacter baumannii. Nature of the assay: microbe, parasite or virus in culture. As to conditions: ATCC 19606, 18 h, ASSAY_TEST Inhibition of Bacterial Growth, detection method Absorption (OD600), MEDIA CAMHB, plate type 384well, NBS, CORNING #3640.
The next assay relates to Staphylococcus aureus. Nature of the assay: microbe, parasite or virus in culture. The settings on record: ATCC 43300, 18 h, ASSAY_TEST Inhibition of Bacterial Growth, detection method Absorption (OD600), MEDIA CAMHB, plate type 384well, NBS, CORNING #3640.
A further assay has as its system HEK293. Nature of the assay: cells. The format is functional, Homo sapiens, ATCC CRL1573. The settings on record: Homo sapiens, ATCC CRL1573, HEK293; ASSAY_TEST Inhibition of Cell Viability; detection method Resazurin; Fluorescence (ex560/em590); MEDIA DMEM with 10% FBS; plate type 384well; TC; CORNING #3712; time 18 hr; read-out: CC50. On the technique in general: Resazurin is reduced to fluorescent resorufin, in cell work by metabolically active cells.

For the next assay, the system named is Candida albicans. Nature of the assay: microbe, parasite or virus in culture. As to conditions: ATCC 90028, ASSAY_TEST Inhibition of Fungal Growth, detection method Absorption (OD530), plate type 384well, NBS, CORNING #3640.
In another assay the test system is Pseudomonas aeruginosa. Nature of the assay: microbe, parasite or virus in culture. As to conditions: ATCC 27853, 18 h, ASSAY_TEST Inhibition of Bacterial Growth, detection method Absorption (OD600), MEDIA CAMHB, plate type 384well, NBS, CORNING #3640.
The subject of another assay is Klebsiella pneumoniae. Nature of the assay: microbe, parasite or virus in culture. The settings on record: ATCC 700603, 18 h, ASSAY_TEST Inhibition of Bacterial Growth, detection method Absorption (OD600), MEDIA CAMHB, plate type 384well, NBS, CORNING #3640.
For a further assay, the system named is Escherichia coli. Nature of the assay: microbe, parasite or virus in culture. As to conditions: ATCC 25922, 18 h, ASSAY_TEST Inhibition of Bacterial Growth, detection method Absorption (OD600), MEDIA CAMHB, plate type 384well, NBS, CORNING #3640.

Description for Acinetobacter baumannii: Antibacterial activity against Acinetobacter baumannii ATCC 19606 (CO-ADD:GN_034); MIC in CAMBH media using NBS plates, by OD600
Description for Candida albicans: Antifungal activity against Candida albicans ATCC 90028 (CO-ADD:FG_001); MIC in YNB media using NBS plates, by OD630
Description for Cryptococcus neoformans: Antifungal activity against Cryptococcus neoformans H99 ATCC 208821 (CO-ADD:FG_002); MIC in YNB media using NBS plates, by Resazurin OD(600-570)
Description for Escherichia coli: Antibacterial activity against Escherichia coli ATCC 25922 (CO-ADD:GN_001); MIC in CAMBH media using NBS plates, by OD(600)
Description for Klebsiella pneumoniae: Antibacterial activity against Klebsiella pneumoniae MDR ATCC 70063 (CO-ADD:GN_003); MIC in CAMBH media using NBS plates, by OD(600)
Description for Pseudomonas aeruginosa: Antibacterial activity against Pseudomonas aeruginosa ATCC 27853 (CO-ADD:GN_042); MIC in CAMBH media using NBS plates, by OD(600)
Description for Staphylococcus aureus: Antibacterial activity against Staphylococcus aureus MRSA ATCC 43300 (CO-ADD:GP_020); MIC in CAMBH media, using NBS plates, by OD(600)

Usually CC50 stands for the concentration at which the toxic effect on the cells reaches its halfway point. With `CN(C)CCCn1cnc(NC(=O)c2cc(NC(=O)c3cc(NC(=O)c4cc5ccccc5cn4)cn3C)cn2C)c1.O=C(O)C(F)(F)F`, the MIC in the assay with Acinetobacter baumannii, with Staphylococcus aureus, with Candida albicans, against Pseudomonas aeruginosa, with Klebsiella pneumoniae and in the assay on Escherichia coli was more than 32 µg/mL throughout. The MIC against Cryptococcus neoformans came to 16 µg/mL. The CC50 in the assay on HEK293 was 7.3 µg/mL.

On to `COc1cccc(C(=N)Nc2cc(C(=O)Nc3cc(C(=O)Nc4cc(C(=O)NCCCN(C)C)n(CCC(C)C)c4)n(C)c3)n(C)c2)c1`, for which the MIC in the assay on Acinetobacter baumannii, against Staphylococcus aureus, in the assay with Candida albicans, in the assay on Pseudomonas aeruginosa, in the assay with Klebsiella pneumoniae and against Escherichia coli was more than 32 µg/mL in each case. In the assay with Cryptococcus neoformans, the MIC was more than 32 µg/mL. Also, the CC50 in the assay with HEK293 was more than 32 µg/mL.

Take `Cn1cc(NC(=O)c2cc(NC(=O)c3ccc(/C=C/c4ccc(C(F)(F)F)cc4)cc3)cn2C)cc1C(=O)NCCN1CCOCC1.O=C(O)C(F)(F)F`: the MIC against Acinetobacter baumannii, in the assay on Staphylococcus aureus, against Candida albicans, in the assay with Pseudomonas aeruginosa, against Klebsiella pneumoniae and against Escherichia coli was more than 32 µg/mL each time. The MIC with Cryptococcus neoformans is more than 32 µg/mL. For the same compound, the CC50 with HEK293 is more than 32 µg/mL.

As for `COc1cccc(/C=C/c2ccc(C(=O)Nc3cc(C(=O)Nc4cc(C(=O)NCCCN(C)C)n(C)c4)n(C)c3)cc2)c1.O=C(O)C(F)(F)F`, the MIC against Acinetobacter baumannii, against Staphylococcus aureus, in the assay on Candida albicans, with Pseudomonas aeruginosa, against Klebsiella pneumoniae and in the assay with Escherichia coli was more than 32 µg/mL throughout. The MIC in the assay on Cryptococcus neoformans is more than 32 µg/mL. For the same compound, in the assay on HEK293, the CC50 was 11.4 µg/mL.

As to `CC(C)CCc1sc(NC(=O)c2cc(NC(=O)c3cc4ccccc4cn3)cn2C)nc1C(=O)NCCCN(C)C.O=C(O)C(F)(F)F`, the MIC against Acinetobacter baumannii, against Staphylococcus aureus, with Candida albicans, with Pseudomonas aeruginosa, in the assay on Klebsiella pneumoniae and with Escherichia coli was more than 32 µg/mL throughout. Further, the MIC against Cryptococcus neoformans was more than 32 µg/mL. Moreover, the CC50 in the assay with HEK293 was 2.17 µg/mL.

Regarding `CC(C)CCc1sc(NC(=O)c2cc(NC(=O)c3cc(NC(=N)c4cnc5ccccc5c4)cn3C)cn2C)nc1C(=O)NCCCN(C)C.O=C(O)C(F)(F)F.O=C(O)C(F)(F)F`, the MIC is more than 32 µg/mL with Acinetobacter baumannii; 1 µg/mL in the assay with Staphylococcus aureus; more than 32 µg/mL with Candida albicans; more than 32 µg/mL with Pseudomonas aeruginosa; more than 32 µg/mL against Klebsiella pneumoniae; more than 32 µg/mL in the assay with Escherichia coli. For the same compound, the MIC against Cryptococcus neoformans was not above 0.25 µg/mL. In the assay on HEK293, the CC50 was 1.18 µg/mL.

Regarding `Cn1cc(NC(=O)c2cc(NC(=O)c3ccc(/C=C/c4cnc5ccccc5c4)cc3)cn2C)cc1C(=O)NCC[N+]1([O-])CCCCC1.O=C(O)C(F)(F)F`, the MIC in the assay on Acinetobacter baumannii, in the assay with Staphylococcus aureus, in the assay with Candida albicans, in the assay on Pseudomonas aeruginosa, against Klebsiella pneumoniae and in the assay with Escherichia coli was more than 32 µg/mL each time. In the assay on Cryptococcus neoformans, this compound came in with an MIC of more than 32 µg/mL. In the assay with HEK293, the CC50 came to 2.97 µg/mL.

With `COC(=O)c1ccc(C(=O)Nc2cc(C(=O)Nc3cc(C(=O)Nc4nc(C(=O)NCCCN(C)C)c(CCC(C)C)s4)n(C)c3)n(C)c2)cc1.O=C(O)C(F)(F)F`, the MIC in the assay on Acinetobacter baumannii, in the assay with Staphylococcus aureus, in the assay with Candida albicans, with Pseudomonas aeruginosa, against Klebsiella pneumoniae and with Escherichia coli was more than 32 µg/mL throughout. The compound further registered an MIC against Cryptococcus neoformans of more than 32 µg/mL. The CC50 in the assay with HEK293 came out at 2.72 µg/mL.

For `CN(C)CCCNC(=O)c1cc(NC(=O)c2cc(NC(=O)c3cc(NC(=N)c4cnc5ccccc5c4)cn3C)cn2C)cn1C.O=C(O)C(F)(F)F.O=C(O)C(F)(F)F`, the MIC against Acinetobacter baumannii, with Staphylococcus aureus, with Candida albicans, in the assay with Pseudomonas aeruginosa, against Klebsiella pneumoniae and against Escherichia coli was more than 32 µg/mL throughout. The MIC with Cryptococcus neoformans came out at 8 µg/mL. Also, the CC50 with HEK293 was more than 32 µg/mL.
